Data reported in patent US8586611B2 (priority 2005, dated 2013).
Where two headings read alike, the source gives them in different places.

Tests used:
Format in all cases: in vivo
[1] = system: Plasmopara viticola; assay: Test B: grape downy mildew, spray 24 h after inoculation (disease rating, 100 = 100% disease control); settings: for pest or weed control at 40 ppm: Plasmopara viticola, 144 h, read-out: Test B disease rating (100 = 100% disease control, 0 = no disease control)
In short: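 Grape seedlings were inoculated with Plasmopara viticola and held 24 h saturated at 20 °C, then sprayed to run-off with compound suspension (acetone/water with 250 ppm Trem 014; 200 ppm ≈ 500 g/ha). After 5 days at 20 °C and 24 h saturation, disease was rated from 0 to 100% control versus untreated.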

[2] = system: Phytophthora infestans; assay: whole plant or invertebrate; settings: for Test C disease rating (100 = 100% disease control, 0 = no disease control): tomato late blight; for pest or weed control at 40 ppm: Phytophthora infestans, in Solanum lycopersicum, 144 h, read-out: Test C disease rating (100 = 100% disease control, 0 = no disease control)
[3] = system: Phytophthora infestans; assay: whole plant or invertebrate; settings: for Test D disease rating (100 = 100% disease control, 0 = no disease control): tomato late blight; for pest or weed control at 40 ppm: Phytophthora infestans, in Solanum lycopersicum, topical, 96 h, read-out: Test D disease rating (100 = 100% disease control, 0 = no disease control)
[4] = system: Erysiphe graminis f. sp. tritici; assay: Test E: wheat powdery mildew, spray the day before inoculation (disease rating, 100 = 100% disease control); settings: for pest or weed control at 40 ppm: Blumeria graminis, topical, 168 h, read-out: Test E disease rating (100 = 100% disease control, 0 = no disease control)
In short: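 Wheat seedlings sprayed to run-off with compound suspended in acetone/water 50/50 with 250 ppm Trem 014 (200 ppm equivalent to 500 g/ha); inoculated next day with Erysiphe graminis f. sp. tritici spore dust. Kept 7 days at 20° C, then rated 0–100% disease control versus controls.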

[5] = sprayed 24 h after inoculation, unmarked compounds (no asterisk, not 40 or 10 ppm)
[6] = sprayed the day before inoculation, unmarked compounds (no asterisk, not 40 or 10 ppm)
[7] = sprayed 17 h after inoculation, unmarked compounds (no asterisk, not 40 or 10 ppm)
[8] = sprayed the day before inoculation, 7 days at 20° C., unmarked compounds (no asterisk, not 40 or 10 ppm)
[9] = spray 24 h after inoculation, tested at 40 ppm
[10] = spray the day before inoculation, tested at 40 ppm
[11] = spray 24 h after inoculation, compounds without asterisk (not 40 or 10 ppm)
[12] = spray the day before inoculation, compounds without asterisk (not 40 or 10 ppm)
[13] = spray 17 h after inoculation, compounds without asterisk (not 40 or 10 ppm)
[14] = spray the day before inoculation, tested at 10 ppm
[15] = spray 17 h after inoculation, tested at 40 ppm

Compound	Test B disease rating (100 = 100% disease control, 0 = no disease control) [1, 11] [%]	Test C disease rating (100 = 100% disease control, 0 = no disease control) [2, 12] [%]	Test D disease rating (100 = 100% disease control, 0 = no disease control) [3, 13] [%]	Test E disease rating (100 = 100% disease control, 0 = no disease control) [4, 12] [%]	further results
Cc1cc(C(F)(F)F)nn1CC(=O)N1CCC(c2nc(C(=O)N3CC=CCC3)cs2)CC1 [compound 310]					Test B disease rating (100 = 100% disease control, 0 = no disease control) [1, 5]: 47; Test C disease rating (100 = 100% disease control, 0 = no disease control) [2, 6]: 73; Test D disease rating (100 = 100% disease control, 0 = no disease control) [3, 7]: 9; Test E disease rating (100 = 100% disease control, 0 = no disease control) [4, 8]: 0
Cc1cc(C(F)(F)F)nn1CC(=O)N1CCC(c2nc(C(=O)N(C)[C@@H]3CC[C@@H](O)c4ccccc43)cs2)CC1 (racemic) [Compound 206, N-methyl-2-[1-[[5-methyl-3-(trifluoromethyl)-1H-pyrazol-1-yl]acetyl]-4-piperidinyl]-N-[(1R,4R)-1,2,3,4-tetrahydro-4-hydroxy-1-naphthalenyl]-4-thiazolecarboxamide]					pest or weed control at 40 ppm [1, 9]: 99%; pest or weed control at 40 ppm [2]: 100%; pest or weed control at 40 ppm [3]: 99%; pest or weed control at 40 ppm [4, 10]: 0%
COc1cccc([C@@H](C)NC(=O)c2csc(C3CCN(C(=O)Cc4cccc(Br)c4)CC3)n2)c1 [compound 281]					Test B disease rating (100 = 100% disease control, 0 = no disease control) [1, 5]: 15; Test C disease rating (100 = 100% disease control, 0 = no disease control) [2, 6]: 0; Test D disease rating (100 = 100% disease control, 0 = no disease control) [3, 7]: 0; Test E disease rating (100 = 100% disease control, 0 = no disease control) [4, 8]: 0
Cc1ccc(C)c(CC(=O)N2CCC(c3nc(C(=O)N(C)C(C)c4cc(C)sc4C)cs3)CC2)c1 (centres unmarked) [compound 112]	93	100	99	95	
Cc1ccc(C)c(CC(=O)N2CCC(c3nc(C(=O)N(C)[C@H](C)c4cccc(C(F)(F)F)c4)cs3)CC2)c1 [compound 56]	31	93	0	0	
Cc1cc(C(F)(F)F)nn1CC(=O)N1CCC(c2nc(C(=O)N(C)C3CCC(C)c4ccccc43)cs2)CC1 (mixture of isomers) [compound 192]	97	100	99	0	
Cc1cc(C(F)(F)F)nn1CC(=O)N1CCC(c2nc(C(=O)N(C)C3CCCCC3c3ccccc3)cs2)CC1 (centres unmarked) [compound 186]					Test B disease rating (100 = 100% disease control, 0 = no disease control) ([1]; spray 24 h after inoculation, tested at 10 ppm): 0%; Test C disease rating (100 = 100% disease control, 0 = no disease control) [2, 14]: 97%; Test D disease rating (100 = 100% disease control, 0 = no disease control) ([3]; spray 17 h after inoculation, tested at 10 ppm): 58%; Test E disease rating (100 = 100% disease control, 0 = no disease control) [4, 14]: 0%
CC[C@H](c1ccccc1)N(C)C(=O)c1csc(C2CCN(C(=O)Cc3ccccc3OC)CC2)n1 [compound 115]	100	100	99	0	
CCOc1cccc(CC(=O)N2CCC(c3nc(C(=O)N(C)[C@H](C)c4ccccc4)cs3)CC2)c1 [compound 79]	82	77	0	0	
Cc1ccc(C)c(CC(=O)N2CCC(c3nc(C(=O)N(C)C4CCc5ccccc5C4)cs3)CC2)c1 (centres unmarked) [compound 98]	0	84	0	0	
Cc1cc(C(F)(F)F)nn1CC(=O)N1CCC(c2nc(C(=O)N(C)[C@@H]3CCCc4ccccc43)no2)CC1 [compound 225]	83	100	99	0	
Cc1cc(C(F)(F)F)nn1CC(=O)N1CCN(c2nc(C(=O)N(C)[C@@H]3CCCc4ccccc43)ns2)CC1 [compound 224]					Test B disease rating (100 = 100% disease control, 0 = no disease control) [1, 9]: 93%; Test C disease rating (100 = 100% disease control, 0 = no disease control) [2, 10]: 100%; Test D disease rating (100 = 100% disease control, 0 = no disease control) [3, 15]: 99%; Test E disease rating (100 = 100% disease control, 0 = no disease control) [4, 10]: 0%
COc1ccc2c(c1)CCCC2N(C)C(=O)c1csc(C2CCN(C(=O)Cn3nc(C(F)(F)F)cc3C)CC2)n1 (centres unmarked) [compound 197]					Test B disease rating (100 = 100% disease control, 0 = no disease control) [1, 9]: 98%; Test C disease rating (100 = 100% disease control, 0 = no disease control) [2, 10]: 100%; Test D disease rating (100 = 100% disease control, 0 = no disease control) [3, 15]: 99%; Test E disease rating (100 = 100% disease control, 0 = no disease control) [4, 10]: 0%
CCc1nc(C)cn1CC(=O)N1CCC(c2nc(C(=O)N(C)[C@H](C)c3ccccc3)cs2)CC1 [compound 128]	0	0	0	0	
CC[C@H](c1ccccc1)N(C)C(=O)c1coc(C2CCN(C(=O)Cc3cc(C)ccc3C)CC2)n1 [Compound 154, 2-[1-[(2,5-dimethylphenyl)acetyl]-4-piperidinyl]-N-methyl-N-[(1R)-1-phenylpropyl]-4-oxazolecarboxamide]					pest or weed control at 40 ppm [1, 9]: 99%; pest or weed control at 40 ppm [2]: 100%; pest or weed control at 40 ppm [3]: 68%; pest or weed control at 40 ppm [4, 10]: 0%
Cc1cc(C(F)(F)F)nn1CC(=O)N1CCN(c2nc(C(=O)N(C)[C@@H]3CCCc4ccccc43)cs2)CC1C (some centres unmarked) [compound 293]					Test B disease rating (100 = 100% disease control, 0 = no disease control) [1, 5]: 100; Test C disease rating (100 = 100% disease control, 0 = no disease control) [2, 6]: 100; Test D disease rating (100 = 100% disease control, 0 = no disease control) [3, 7]: 99; Test E disease rating (100 = 100% disease control, 0 = no disease control) [4, 8]: 0
CC[C@H](c1ccccc1)N(C)C(=O)c1coc(C2CCN(C(=O)Cn3nc(C(F)(F)F)cc3C)CC2)n1 [Compound 152, N-methyl-2-[1-[[5-methyl-3-(trifluoromethyl)-1H-pyrazol-1-yl]acetyl]-4-piperidinyl]-N-[(1R)-1-phenylpropyl]-4-oxazolecarboxamide]					pest or weed control at 40 ppm [1, 9]: 99%; pest or weed control at 40 ppm [2]: 100%; pest or weed control at 40 ppm [3]: 99%; pest or weed control at 40 ppm [4, 10]: 0%
Cc1cc(C(F)(F)F)nn1CC(=O)N1CCC(c2nc(C(=O)N(C)Cc3ccccc3)cs2)CC1 [compound 248]	88	100	80	53	
CC(c1cccnc1)N(C)C(=O)c1csc(C2CCN(C(=O)Cc3cccc(C(F)(F)F)c3)CC2)n1 (centres unmarked) [compound 66]	2	54	42	0	
Cc1cc(C(F)(F)F)nn1CC(=O)N1CCC(c2csc(C(=O)N(C)[C@@H]3CCCc4ccccc43)n2)CC1 [compound 223]					Test B disease rating (100 = 100% disease control, 0 = no disease control) [1, 9]: 99%; Test C disease rating (100 = 100% disease control, 0 = no disease control) [2, 10]: 100%; Test D disease rating (100 = 100% disease control, 0 = no disease control) [3, 15]: 99%; Test E disease rating (100 = 100% disease control, 0 = no disease control) [4, 10]: 0%
